Where “and” joins values, the source holds several entries; their conditions need not be identical. Equal values may be shown once.
Tests used:
S. aureus = experiment: Anti-infective Test - Cure of Acute Mouse Bacterial Infection (mouse protection), S. aureus; type: in vivo; conditions: for CD50 (curative dose50, total dose required to cure half the animals): dosed 1 and 5 hours post-infection, 95 percent confidence limits in brackets
Procedure: (§1) Anti-infective Test--Cure of Acute Mouse Bacterial Infection
(§2) To determine the ability of potential anti-microbial agents to cure mice of an otherwise lethal infection.
Bacterial strains used in this test have been previously tested and, if necessary, adapted to mice and are maintained on brain heart infusion (BHI) agar slants at 4° C. Tubes of BHI broth are inoculated from the slants and incubated for 18 hours at 37° C. Serial ten-fold dilutions of this culture are made in BHI broth. The bacterial suspensions used to infect mice are obtained by making the final ten-fold dilution in 5 percent aqueous hog gastric mucin (American Laboratories Incorporated). Mice are infected by an intraperitoneal injection of 0.75 ml. of the resulting suspension. The dilution of test organism selected (standard inoculum) is based on prior experience with that organism and is usually 10-100-fold more concentrated than the LD50 dilution, i.e., that concentration which when administered as described above causes 50 percent mortalities.
The antimicrobial test substance is dissolved at the desired concentration in a suitable vehicle (sterile water, unless otherwise specified) and four serial, two-fold dilutions of this solution are made with the vehicle.
In dosing the animals, all mice are considered to weigh 20 grams. The volume administered is always 0.5 ml. at 1 and 5 hours post-infection (total of 1.0 ml.), with half of the total dose given at each time.
Administration of Test Substances:
The test substance may be administered by any of the following routes:
2. Subcutaneously, at the nape of the neck,
3. Intramuscularly in the thigh,
4. Intravenously in the tail vein.
Female Swiss albino mice weighing 18 to 20 grams are divided randomly into groups of ten animals and housed one group to a cage. Food (standard mouse pellets) and water are supplied ad lib throughout the test. All animals are sacrificed at the conclusion of the test.
Group T0 is neither infected nor treated, but is observed for seven days. If more than one mortality occurs in this group, the data will be reviewed to determine is there is cause to invalidate the test.
Groups T1 through T4 are used to monitor the strength of the infection actually used in this experiment. These groups are infected but untreated. Group T1 is infected with the standard inoculum, and groups T2 through T4 are infected with successive ten-fold dilutions of the organism prepared such that only the final dilution in each case is made with 5 percent aqueous hog gastric mucin. These groups are observed for seven days, mortalities are recorded and used to determine the number of challenge LD50's (within ten-fold limits) present in the standard inoculum used to infect medicated groups of animals.
Groups T5 through T9 are infected intraperitoneally with the standard inoculum. Each group is treated with one of the two-fold dilutions of the test substance by a specified route of administration at 1 hour and 5 hours post infection. The animals are observed for seven days and mortalities are recorded.
Further sets of five groups of animals are infected and treated in the same manner as groups T5 through T9 for each additional test substance studied.
CD50's (the total dose, in mg./kg., required to cure half the animals) are calculated by standard statistical methods and are reported with 95 percent confidence limits where these are obtainable or annotated with PS (poor slope) where they are not.
This test is performed in primary and secondary variations. […]

E. coli (J) = experiment: Anti-infective Test - Cure of Acute Mouse Bacterial Infection (mouse protection), E. coli; type: in vivo; conditions: E. coli (J) intraperitoneal infection in female Swiss albino mice; route I.V.; dosed 1 and 5 hours post-infection; observed seven days
Procedure: as §1, §2
Bacterial strains used in this test have been previously tested and, if necessary, adapted to mice and are maintained on brain heart infusion (BHI) agar slants at 4° C. Tubes of BHI broth are inoculated from the slants and incubated for 18 hours at 37° C. Serial ten-fold dilutions of this culture are made in BHI broth. The bacterial suspensions used to infect mice are obtained by making the final ten-fold dilution in 5 percent aqueous hog gastric mucin (American Laboratories Incorporated). […]
Groups T1 through T4 are used to monitor the strength of the infection actually used in this experiment. […] These groups are observed for seven days, mortalities are recorded and used to determine the number of challenge LD50's (within ten-fold limits) present in the standard inoculum used to infect medicated groups of animals.
Groups T5 through T9 are infected intraperitoneally with the standard inoculum. […] The animals are observed for seven days and mortalities are recorded. […]
CD50's (the total dose, in mg./kg., required to cure half the animals) are calculated by standard statistical methods and are reported with 95 percent confidence limits where these are obtainable or annotated with PS (poor slope) where they are not. […]

[1] = S. aureus (S) intraperitoneal infection in female Swiss albino mice, route I.V., observed seven days

| Compound | CD50 (curative dose50, total dose required to cure half the animals) (S. aureus; [1]) | CD50 (curative dose50, total dose required to cure half the animals) (S. aureus; S. aureus (S) intraperitoneal infection in female Swiss albino mice, route S.C., observed seven days) | CD50 (curative dose50, total dose required to cure half the animals) (E. coli (J)) | Percent Surviving Mice With Varying Drug Dose (S. aureus; S. aureus (S) infection in mice, route I.V., dose of this cell not printed as text) | CD50 (curative dose50, total dose required to cure half the animals) (S. aureus; S. aureus (SC) intraperitoneal infection in female Swiss albino mice, route cell is a drawing (not readable)) |
| --- | --- | --- | --- | --- | --- |
| Ristocetin [Compound 1] | 4.1 mg./kg. and 6.6 mg./kg. and 5.6 (4.2-7.5) mg./kg. and 6 mg./kg. | 3.7 (2.4-5.7) mg./kg. | 50 mg/kg |  |  |
| O--demethylristocetin aglycone [Compound 3] | 9.3 (5.9-17.3) mg./kg. |  |  |  |  |
| COC(=O)[C@H]1NC(=O)[C@H]2NC(=O)[C@H](NC(=O)[C@@H]3NC(=O)[C@H]4NC(=O)[C@H](NC(=O)[C@H](N)c5ccc(O)c(c5)Oc5cc4cc(O)c5C)[C@H](O)c4ccc(cc4)Oc4cc3cc(c4O)Oc3ccc(cc3)[C@H]2O)c2ccc(O)c(c2)-c2c(O)cc(O)cc21 [Compound 2, Ristocetin aglycone] |  |  | 50 mg/kg | 90% | 2.7 (1.8-4.1) mg./kg. |
